In patent publication US20040120938A1, “Ingestible compositions comprising antibacterial agents” (The University of Bath, priority 1998, published 2004):
Read-outs that look alike come from different tables or passages of the source.

Key:
Escherichia coli NCTC 86 = test: Peroxynitrite effect on cell viability, viable colony count (Test 8(a)); assay type: cell-based; settings: E. coli; for IC50: Escherichia coli, NCTC86
Protocol: To obtain cells used in this test, the infective bacterial strain Escherichia coli NCTC 86 (E. coli) was cultured on nutrient agar at 37° until colony formation occurred, usually overnight. This stock culture was used for subsequent experiments including sub-culturing in nutrient broth and plated onto agar weekly. Experimental cultures of E. coli were set up overnight in nutrient broth from single colonies on an agar plate. Cells were harvested and counted using a standard curve of known absorbance at 470 nm against viable cell count. Peroxynitrite was generated by the method of Crow et al, Biochem. 34, p. 3544-3552 (1995). […] The concentration of ONOO^− formed was measured using an absorption coefficient of 1670 M^−1 cm^−1 in a spectrophotometer at a wavelength of 303 nm. Solutions of different concentrations for use in (a) below were obtained by dilution of the product solution using PBS. Cells cultured as described above were diluted to suitable working concentrations (10^4-10^5 Cells Ml^−1) in sterile phosphate buffered saline (PBS). ONOO^− at a range of concentrations from […] to 0.01 μm was added as a bolus dose to cells and incubated at room temperature for ten minutes. Aliquots were taken from the cell cultures and plated on to nutrient agar and incubated in a warm room at 37° C. overnight. Viable cells formed colonies on the agar and were counted. The number of colonies formed was related to an untreated control and a graph of the results is shown in FIG. 1, which illustrates the effect of ONOO^− on cell viability.

E. coli [1] = test: Peroxynitrite scavenger and XO systems on bacterial growth curves in nutrient broth (Test 8(d)); assay type: cell-based
Protocol: E. coli were seeded into nutrient broth at 2.10^7 cell ml^−1 and incubated at 37° C. under atmospheric air conditions (that is, 21% oxygen saturation). Four separate test samples of volume 1 ml were prepared by addition at 1 hour of incubation as follows:
1 Peroxynitrite at concentration 100 μM.
2 Peroxynitrite at 100 μM and quercetin (peroxynitrite scavenger) at 100 μM.
3 Xanthine oxidase (53.2 μg) and xanthine at 100 μM.
4 Xanthine oxidase (53.2 μg) and NADH at 100 μM.
Corresponding controls were also prepared, and the growth curves generated over time determined by monitoring absorbance.

[2] = test system: contaminants of semi-skimmed bovine milk (postulated Lactobacilli sp.); test: Peroxynitrite addition to semi-skimmed bovine milk, colony forming units (Test 8(b)); assay type: cell-based; settings: 4° C., four days
Protocol: Commercially produced bovine milk was purchased in semi-skimmed form. Aliquots were taken on day one of experimentation and plated onto nutrient agar and grown overnight at 37° C. The number of colonies formed following incubation was counted. The remaining milk was divided into three portions after removal of those aliquots. No peroxynitrite was added to the first portion, which was the control. A single bolus dose of 100 μM ONOO^− was added to the second portion on day one, and the third portion was treated by addition of a daily bolus dose of 100 μM ONOO^−. The portions were stored during the four days of the test at a temperature of 4° C. Each day, aliquots were taken from each portion and cultured overnight at 37° C. for viable count determination. […] Although the contaminants were not formally identified, it was postulated that they included at least Lactobacilli sp., that being a cell type often present in milk.

[3] = test system: Staphylococcus aureus 6751; test: Bacterial growth rate by optical density, 96 well plate (Tests 8(f), 8(g)); assay type: cell-based
Protocol: (§1) Bacteria were seeded into nutrient broth (NB) and grown over night at 37° C. The culture was then counted and normalised to give a final cell concentration of 1.8×10^7 cells well^−1 into the wells of a 96 well plate in fresh nutrient broth. The optical density of each well was monitored every 15 minutes as a measure of the growth rate of each bacterial species. Growth curves were generated for each species and the maximal rate of growth (logarithmic phase) was measured. Cells were treated to a range of experimental conditions in which the growth rate of cells was related to a control of untreated cells. The results were expressed as a percentage of the growth rate of the control cells.
(§2) (i) At a fixed concentration of hypoxanthine (100 μM) a range of purified XO protein concentrations were added at time 0 minutes. The optical density was followed and the growth rate calculated.
(§3) (ii) The growth rate was also measured in relation to the concentration of hypoxanthine, using 30 μg of XO with cells seeded as described above.
(§4) (iv) The effect of XO hypoxanthine addition was measured on the growth rate of a range of bacterial species with 30 […] XO at varying hypoxanthine concentrations using cells seeded as described above.

Lactobacillus casei 6375 = test: as above; assay type: cell-based; settings: Lacticaseibacillus casei, 6375; Lactobacillus casei; bolus at beginning of logarithmic growth; read-out: Half maximal concentration ONOO -
Protocol: as §1, §2, §3, §4

S. enteritidis [4] = test: Peroxynitrite effect on cell viability (Test 8(a)); assay type: cell-based; settings: Salmonella enterica
Protocol: Cells cultured as described above were diluted to suitable working concentrations (10^4-10^5 Cells Ml^−1) in sterile phosphate buffered saline (PBS). ONOO^− at a range of concentrations from […] to 0.01 μm was added as a bolus dose to cells and incubated at room temperature for ten minutes. Aliquots were taken from the cell cultures and plated on to nutrient agar and incubated in a warm room at 37° C. overnight. Viable cells formed colonies on the agar and were counted. The number of colonies formed was related to an untreated control and a graph of the results is shown in FIG. 1, which illustrates the effect of ONOO^− on cell viability.

E. coli [5] = test: Xanthine oxidase derived species on cell viability at a range of oxygen concentrations (Test 8(c)); assay type: cell-based
Protocol: E. coli were cultured as described above. Aliquots were taken and incubated with a reaction system consisting of bovine Xanthine oxidase (XO) (53.2 μgml^−1), nicotinamide adenine dinucleotide in reduced form (NADH) (300 μM), sodium nitrite, (NaNO2) 1 mM and oxygen at a range of concentrations. Desired oxygen concentrations were generated by delivery into the system of a mixture of oxygen and nitrogen in appropriate proportions and determined using a Clark-type O2 electrode. This reaction was followed at 37° C. for 30 min with mixing before an aliquot was taken and plated onto agar and incubated in a warm room at 37° C. Viable cells formed colonies on the agar and were counted. Viable cell counts were performed in triplicate and the results expressed as a percentage viable count in each case related to a non enzyme control of the same oxygen concentration. […] The range of oxygen tensions used covers those in which XO has previously been considered to be active, namely superoxide generation (21% O2 saturation) and nitric oxide production (0% O2 saturation). A certain amount of killing is seen at both of these extremes as compared with control samples. However, it is only at an intermediate oxygen concentration that the greatest amount of killing is observed. […] Corresponding data obtained in respect of S. enteritidis indicated a peak killing oxygen concentration of 0% for that cell type.
Replacement of NADH in the above method by 100 μM hypoxanthine, with a sodium nitrite concentration of 2.5 μM led to slightly higher peak killing oxygen concentrations (6.4% for E. coli and 1.5% for S. enteritidis).

S. enteritidis [6] = test: as above; assay type: cell-based
[7] = test system: nitric oxide (NO) release; test: NO release from pure bovine xanthine oxidase with nitrite and NADH under hypoxia (Tests 1-3); assay type: biochemical
Protocol: The production of nitric oxide in the following tests and examples was analysed using an ozone chemiluminescence assay in a continuous flow apparatus (Sievers NOA 280) that allows the real time analysis of NO production. The apparatus was modified to allow a constant stream of nitrogen to flow into the reaction chamber. Chemiluminescence data were collected by a data acquisition system; the mean NO produced in parts per billion (ppb) was calculated from readings taken every second and shown as ppb or mV.
Progress curves, of molar production of NO against time, were calculated by taking into account the gas flow and the mean level of NO. Molar production of NO was expressed as ppb/sec or mV/sec. Reactions were carried out in a final volume of 1 ml at 37° C. in an atmosphere of <1% oxygen (Stathkelvin combination needle oxygen electrode, Diamond General Corp.).
The release of nitric oxide (NO) from a composition including pure bovine xanthine oxidase under hypoxia conditions was studied. The samples studied comprised reduced β-Nicotinamide adenine dinucleotide (NADH) and nitrite (NO2^−) and pure bovine xanthine oxidase.
Bovine xanthine oxidase was diluted with PBS as indicated in Table 1 below to give 300 μl of enzyme mixture. The enzyme mixture (300 μl) was mixed with 700 μl of a substrate mixture to give an assay volume of 1 ml. The substrate mixture comprised nitrite which was added to the assay to give a concentration of 1 mM and NADH which was added to give a concentration of 0.3 mM. Where, for example in Tests 2 to 4 below, additional components are added to the sample, the amount of PBS is adjusted accordingly to give an assay volume of 1 ml. The sample was placed in the reaction vessel of the NO determination apparatus under a nitrogen atmosphere and the generation of NO was measured and the results calculated as a steady state rate in mV/s.
Using the method described above in respect of Test 1, the effect of the variation in the concentration of NADH on the production of NO was investigated. 4 mM NADH was diluted with PBS to give the relevant concentration.
Using the method described above in respect of Test 1, the effect of the variation in the concentration of nitrite on the production of NO was investigated. As for Test 1, the concentration of NADH was 0.3 mM. 1M nitrite (or 100 mM nitrite, where appropriate for low concentrations) was diluted with PBS to give the relevant concentration.

For `O=NOO` [Peroxynitrite], the “effect on cell viability (viable count, FIG. 1)” value (Escherichia coli NCTC 86; range of concentrations, ten minutes) was “profound inhibitory effect”, the IC50 (Escherichia coli NCTC 86; bolus dose, ten minutes at room temperature in PBS, read-out: IC50 (concentration that reduces viability to 50% of control viable count)) was 1.4 µM and the IC50 (Escherichia coli NCTC 86; value matches Test 8(a) viability IC50, read-out: Half maximal concentration ONOO -) was 1.4 µM. The “killing (growth curve)” value (E. coli [1]; 100 μM added at 1 hour, 21% oxygen saturation) was “strong killing”, the “colony forming units (CFU) in milk compared to control” value ([2]; daily bolus dose of 100 μM, p<=0.01, also below single dose p<=0.05) was “reduced the CFU significantly below control” and the “colony forming units (CFU) in milk compared to control” value ([2]; single bolus dose of 100 μM on day one, p<=0.01) was “reduced the CFU significantly”. It also gave an IC50 ([3]; 6751, Staphylococcus aureus, bolus at beginning of logarithmic growth, read-out: Half maximal concentration ONOO -) of 290 µM, an IC50 (Lactobacillus casei 6375) of 55 µM and an IC50 (S. enteritidis [4]; S. enteritidis, similar conditions, read-out: IC50 (concentration that reduces viability to 50% of control viable count)) of 2.03 µM. The IC50 (S. enteritidis [4]; Salmonella enteritidis, value matches Test 8(a) viability IC50, read-out: Half maximal concentration ONOO -) was 2 µM.

In the case of `O=c1c(O)c(-c2ccc(O)c(O)c2)oc2cc(O)cc(O)c12` [quercetin], the “effect on peroxynitrite killing” value (E. coli [1]; 100 μM with peroxynitrite 100 μM) is reported as “clear effect in reducing killing”.

With `O=c1[nH]c(=O)c2[nH]cnc2[nH]1` [xanthine] the “killing using xanthine instead of hypoxanthine” value (E. coli [5]; XO system, cell type not specified) was “More limited killing”.

With xanthine oxidoreductase [XOR] the “killing above about 8% oxygen” value (E. coli [5]; E. coli) was “little or no killing”, the “oxygen concentration of most effective killing” value (E. coli [5]; E. coli, XO 53.2 μg/ml, NADH 300 μM, NaNO2 1 mM, 37° C., 30 min) was “approximately 3 % of saturation” and the killing (E. coli [5]; E. coli, oxygen concentration about 21%) was “about 5%”. The “killing above about 8% oxygen” value (S. enteritidis [6]) was “little or no killing”, the “peak killing oxygen concentration” value (S. enteritidis [6]; XO, NADH, NaNO2) was 0% and the killing (S. enteritidis [6]; oxygen concentration about 21%) was “about 10%”. For the same compound, the growth inhibition ([3]; Staphylococcus, hypoxanthine 100 μM, range of XO concentrations) was “less marked growth inhibition”, the NO release ([7]; XOR 21.4 μg, nitrite 0 mM, NADH 0.3 mM) was 0.00 mV/s and the NO release ([7]; XOR 21.4 μg, nitrite 1 mM, NADH 0.3 mM) was 53.75 mV/s. It also gave an NO release ([7]; XOR 21.4 μg, nitrite 5 mM, NADH 0.3 mM) of 184.8 mV/s, an NO release ([7]; XOR 21.4 μg, nitrite 10 mM, NADH 0.3 mM) of 378.10 mV/s and an NO release ([7]; XOR 21.4 μg, nitrite 25 mM, NADH 0.3 mM) of 407.55 mV/s. It also gave an NO release ([7]; XOR 21.4 μg, nitrite 50 mM, NADH 0.3 mM) of 474.05 mV/s, an NO release ([7]; XOR 53.5 μg, NADH 0.00 mM) of 0.00 mV/s and an NO release ([7]; XOR 53.5 μg, NADH 0.10 mM) of 30.45 mV/s. It also gave an NO release ([7]; XOR 53.5 μg, NADH 0.25 mM) of 66.80 mV/s, an NO release ([7]; XOR 53.5 μg, NADH 0.50 mM) of 92.55 mV/s and an NO release ([7]; XOR 53.5 μg, NADH 1.00 mM) of 103.35 mV/s. For the same compound, the NO release ([7]; XOR 53.5 μg, NADH 2.00 mM) was 109.20 mV/s, the NO release ([7]; XOR 107.0 μg, NADH 0.00 mM) was 0.00 mV/s and the NO release ([7]; XOR 107.0 μg, NADH 0.10 mM) was 74.45 mV/s. For the same compound, the NO release ([7]; XOR 107.0 μg, NADH 0.25 mM) was 142.70 mV/s, the NO release ([7]; XOR 107.0 μg, NADH 0.50 mM) was 192.65 mV/s and the NO release ([7]; XOR 107.0 μg, NADH 1.00 mM) was 230.05 mV/s. For the same compound, the NO release ([7]; XOR 107.0 μg, NADH 2.00 mM) was 264.65 mV/s, the NO release ([7]; XOR protein in assay 21.4 μg, 1 mM nitrite, 0.3 mM NADH) was 50.05 mV/s and the NO release ([7]; XOR protein in assay 53.5 μg, 1 mM nitrite, 0.3 mM NADH) was 76.35 mV/s. For the same compound, the NO release ([7]; XOR protein in assay 107.0 μg, 1 mM nitrite, 0.3 mM NADH) was 128.55 mV/s, the NO release ([7]; XOR protein in assay 160.5 μg, 1 mM nitrite, 0.3 mM NADH) was 187.20 mV/s and the NO release ([7]; XOR protein in assay 214.0 μg, 1 mM nitrite, 0.3 mM NADH) was 225.75 mV/s. The “optimum pH for the production of NO under the hypoxic conditions” value ([7]; hypoxic conditions) was roughly 5.5.
